Measured values from PubChem BioAssay (NCI).
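Grown in 96-well plates, cells were treated for 48 hours with each compound at five concentrations. Insufficient inhibition: endpoint recorded as highest concentration tested. GI50 = concentration required for 50% inhibition of growth. Definition used: TGI = concentration required for complete inhibition of growth.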

Columns and labels:
Test in all cases: NCI anticancer screen, dose series, 48 h
SW-620 colon = test system: SW-620 colon
CAKI-1 renal = test system: CAKI-1 renal
SK-MEL-2 melanoma = test system: SK-MEL-2 melanoma
EKVX NSCLC = test system: EKVX NSCLC
OVCAR-5 ovarian = test system: OVCAR-5 ovarian
TK-10 renal = test system: TK-10 renal
SN12C renal = test system: SN12C renal
SF-295 CNS = test system: SF-295 CNS
MCF7 breast = test system: MCF7 breast
HS 578T breast = test system: HS 578T breast
OVCAR-4 ovarian = test system: OVCAR-4 ovarian
OVCAR-3 ovarian = test system: OVCAR-3 ovarian
UACC-257 melanoma = test system: UACC-257 melanoma
UACC-62 melanoma = test system: UACC-62 melanoma
HL-60(TB) leukemia = test system: HL-60(TB) leukemia
NCI-H460 lung = test system: NCI-H460 lung
SNB-19 CNS = test system: SNB-19 CNS
NCI-H23 lung = test system: NCI-H23 lung
SF-539 CNS = test system: SF-539 CNS
RPMI-8226 leukemia = test system: RPMI-8226 leukemia
T-47D breast = test system: T-47D breast
ACHN renal = test system: ACHN renal
M14 melanoma = test system: M14 melanoma
NCI-H522 lung = test system: NCI-H522 lung
K-562 leukemia = test system: K-562 leukemia
A549 NSCLC = test system: A549 NSCLC
HOP-62 NSCLC = test system: HOP-62 NSCLC
OVCAR-8 ovarian = test system: OVCAR-8 ovarian
MDA-MB-435 = test system: MDA-MB-435
KM12 colon = test system: KM12 colon
BT-549 breast = test system: BT-549 breast
SR leukemia = test system: SR leukemia
HCT-15 colon = test system: HCT-15 colon
RXF 393 renal = test system: RXF 393 renal
786-0 renal = test system: 786-0 renal
UO-31 renal = test system: UO-31 renal
SK-MEL-5 melanoma = test system: SK-MEL-5 melanoma
SK-OV-3 ovarian = test system: SK-OV-3 ovarian
PC-3 prostate = test system: PC-3 prostate
NCI/ADR-RES ovarian = test system: NCI/ADR-RES ovarian
DU-145 prostate = test system: DU-145 prostate
LOX IMVI melanoma = test system: LOX IMVI melanoma
IGROV1 ovarian = test system: IGROV1 ovarian
HCT-116 colon = test system: HCT-116 colon
HOP-92 NSCLC = test system: HOP-92 NSCLC
COLO 205 colon = test system: COLO 205 colon
MDA-MB-231 breast = test system: MDA-MB-231 breast
U251 CNS = test system: U251 CNS
HCC-2998 colon = test system: HCC-2998 colon
SF-268 CNS = test system: SF-268 CNS
SK-MEL-28 melanoma = test system: SK-MEL-28 melanoma

## Oc1ccc(Nc2nc3ccccc3c3occc23)cc1
SW-620 colon
  GI50: 19.7 µM
  TGI: 50.5 µM
CAKI-1 renal
  GI50: 12.1 µM
  TGI: 28.1 µM
SK-MEL-2 melanoma
  GI50: 18.2 µM
  TGI: 42.1 µM
EKVX NSCLC
  GI50: 14.5 µM
  TGI: 39.2 µM
OVCAR-5 ovarian
  GI50: 15.6 µM
  TGI: 38.3 µM
TK-10 renal
  GI50: 13 µM
  TGI: 27.1 µM
SN12C renal
  GI50: 12.2 µM
  TGI: 26.5 µM
SF-295 CNS
  GI50: 11 µM
  TGI: 23.9 µM
MCF7 breast
  GI50: 11.5 µM
  TGI: 44.4 µM
HS 578T breast
  GI50: 16.5 µM
  TGI: 45.4 µM
OVCAR-4 ovarian
  GI50: 12.3 µM
  TGI: 98.9 µM
OVCAR-3 ovarian
  GI50: 5.8 µM
  TGI: 22.8 µM
UACC-257 melanoma
  GI50: 12.9 µM
  TGI: 30.7 µM
UACC-62 melanoma
  GI50: 11.7 µM
  TGI: 23.9 µM
HL-60(TB) leukemia
  GI50: 10.2 µM
  TGI: > 100 µM
NCI-H460 lung
  GI50: 12.6 µM
  TGI: 36.1 µM
SNB-19 CNS
  GI50: 17.2 µM
  TGI: 50.5 µM
NCI-H23 lung
  GI50: 12.4 µM
  TGI: 28.5 µM
SF-539 CNS
  GI50: 16.5 µM
  TGI: 33.7 µM
RPMI-8226 leukemia
  GI50: 7.63 µM
  TGI: 72.6 µM
T-47D breast
  GI50: 17 µM
  TGI: 51.2 µM
ACHN renal
  GI50: 4.54 µM
  TGI: 29.4 µM
M14 melanoma
  GI50: 14.2 µM
  TGI: 34.6 µM
NCI-H522 lung
  GI50: 9.03 µM
  TGI: 26.1 µM
K-562 leukemia
  GI50: 9.84 µM
  TGI: > 100 µM
A549 NSCLC
  GI50: 14.4 µM
  TGI: 52.1 µM
HOP-62 NSCLC
  GI50: 16.9 µM
  TGI: > 100 µM
OVCAR-8 ovarian
  GI50: 17.1 µM
  TGI: 58.8 µM
MDA-MB-435
  GI50: 9.77 µM
  TGI: 21.6 µM
KM12 colon
  GI50: 15.5 µM
  TGI: 38.6 µM
BT-549 breast
  GI50: 6.72 µM
  TGI: 34.6 µM
SR leukemia
  GI50: 31.4 µM
  TGI: > 100 µM
HCT-15 colon
  GI50: 14.3 µM
  TGI: 40.5 µM
RXF 393 renal
  GI50: 11.3 µM
  TGI: 41.3 µM
786-0 renal
  GI50: 12.2 µM
  TGI: 26.8 µM
UO-31 renal
  GI50: 10.1 µM
  TGI: 33.3 µM
SK-MEL-5 melanoma
  GI50: 8.15 µM
  TGI: 21.9 µM
SK-OV-3 ovarian
  GI50: 16.2 µM
  TGI: 33.7 µM
PC-3 prostate
  GI50: 16.1 µM
  TGI: 66.4 µM
NCI/ADR-RES ovarian
  GI50: 16.2 µM
  TGI: 31.5 µM
DU-145 prostate
  GI50: 11.3 µM
  TGI: 23.4 µM
LOX IMVI melanoma
  GI50: 2.21 µM
  TGI: 15.9 µM
IGROV1 ovarian
  GI50: 2.93 µM
  TGI: 23.5 µM
HCT-116 colon
  GI50: 16.3 µM
  TGI: 34.5 µM
HOP-92 NSCLC
  GI50: 13.9 µM
  TGI: 32 µM
COLO 205 colon
  GI50: 18.9 µM
  TGI: 50.1 µM
MDA-MB-231 breast
  GI50: 5.34 µM
  TGI: 25.7 µM
U251 CNS
  GI50: 11.3 µM
  TGI: 26.1 µM
HCC-2998 colon
  GI50: 11.4 µM
  TGI: 23.7 µM
SF-268 CNS
  GI50: 11.4 µM
  TGI: 31.6 µM
SK-MEL-28 melanoma
  GI50: 17.6 µM
  TGI: 45.6 µM
